Data taken from US11046728B2, “Neuroactive steroids, compositions, and uses thereof” (Sage Therapeutics, Inc., priority 2013, dated 2021).

Assays:
[1] = molecular target: TBPS binding, rat brain cortical membranes in the presence of 5 μM GABA; experiment: 35S-TBPS displacement (steroid inhibition of TBPS binding); details: read-out: 35S-TBPS Radioligand Displacement (IC50)
Method: TBPS binding assays using rat brain cortical membranes in the presence of 5 μM GABA has been described (Gee et al, J. Pharmacol. Exp. Then 1987, 241, 346-353; Hawkinson et al, Mol. Pharmacol. 1994, 46, 977-985). Briefly, cortices are rapidly removed following decapitation of carbon dioxide-anesthetized Sprague-Dawley rats (200-250 g). The cortices are homogenized in 10 volumes of ice-cold 0.32 M sucrose using a glass/teflon homogenizer and centrifuged at 1500×g for 10 min at 4° C. The resultant supernatants are centrifuged at 10,000×g for 20 min at 4° C. to obtain the P2 pellets. The P2 pellets are resuspended in 200 mM NaCl/50 mM Na—K phosphate pH 7.4 buffer and centrifuged at 10,000×g for 10 min at 4° C. This washing procedure is repeated twice and the pellets are resuspended in 10 volumes of buffer. Aliquots (100 μL) of the membrane suspensions are incubated with 3 nM [^35S]-TBPS and 5 μL, aliquots of test drug dissolved in dimethyl sulfoxide (DMSO) (final 0.5%) in the presence of 5 μM GABA. The incubation is brought to a final volume of 1.0 mL with buffer. Nonspecific binding is determined in the presence of 2 μM unlabeled TBPS and ranged from 15 to 25%. Following a 90 min incubation at room temp, the assays are terminated by filtration through glass fiber filters (Schleicher and Schuell No. 32) using a cell harvester (Braudel) and rinsed three times with ice-cold buffer. Filter bound radioactivity is measured by liquid scintillation spectrometry. Non-linear curve fitting of the overall data for each drug averaged for each concentration is done using Prism (GraphPad). […] The concentration of test compound producing 50% inhibition (IC50) of specific binding and the maximal extent of inhibition (Imax) are determined for the individual experiments with the same model used for the overall data and then the means±SEMs of the individual experiments are calculated.
Various compounds are or can be screened to determine their potential as modulators of ^35S-TBPS binding in vitro. These assays are or can be performed in accordance with the above discussed procedures.

male Sprague Dawley rats = experiment: Loss of righting reflex in rats; assay type: in vivo, rat; details: intravenous bolus 5 mg/kg
Method: The plasma pharmacokinetics and a qualitative assessment of sedation were obtained in male Sprague Dawley rats according to the following procedure. Rats were dosed by intravenous bolus dose (60 seconds) via the foot dorsal vein at 5 mg/kg in an appropriate vehicle. In order to assess sedation, rats were gently restrained by hand to a lateral position for dose administration. […] If the animal was unable to return to an upright position, the time was recorded as the onset of loss of righting reflex (LRR). […] Sluggish or incomplete righting twice consecutively within a 30 second interval qualifies as a loss of righting reflex. After onset of LRR, animals were assessed every 5 minutes in the same manner. Recovery of righting reflex is defined as the ability of a rat to right itself completely within 20 seconds of being placed in dorsal recumbency. The duration of LRR is defined as the time interval between LRR and the return of righting reflex.

GABA receptor α1β2γ2 = molecular target: T1, GABA receptor α1β2γ2 (Homo sapiens, UniProt P14867+P47870); experiment: Patch clamp electrophysiology, Qpatch in Ltk cells; assay type: cell-based; details: 10 μM test article, GABA EC20 = 2 μM, read-out: GABA (α1β2γ2) Qpatch in Ltk, % efficacy at 10 μM
T1 construct: expressed in transfected cells; host or cells: LTK cells, stably transfected
T1 sequence (P14867 28-456): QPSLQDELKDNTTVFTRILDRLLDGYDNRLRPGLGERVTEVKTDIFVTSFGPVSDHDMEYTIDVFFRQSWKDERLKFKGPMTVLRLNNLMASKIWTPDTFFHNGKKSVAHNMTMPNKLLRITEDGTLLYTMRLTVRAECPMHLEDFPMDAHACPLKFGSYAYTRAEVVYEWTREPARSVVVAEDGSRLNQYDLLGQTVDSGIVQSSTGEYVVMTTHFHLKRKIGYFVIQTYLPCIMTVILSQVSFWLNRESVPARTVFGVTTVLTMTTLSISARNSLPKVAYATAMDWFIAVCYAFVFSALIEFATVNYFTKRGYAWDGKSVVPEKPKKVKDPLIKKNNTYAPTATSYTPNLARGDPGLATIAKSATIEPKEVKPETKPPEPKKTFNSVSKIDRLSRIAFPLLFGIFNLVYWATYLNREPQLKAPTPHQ
T1 sequence (P47870 25-512 limits assumed): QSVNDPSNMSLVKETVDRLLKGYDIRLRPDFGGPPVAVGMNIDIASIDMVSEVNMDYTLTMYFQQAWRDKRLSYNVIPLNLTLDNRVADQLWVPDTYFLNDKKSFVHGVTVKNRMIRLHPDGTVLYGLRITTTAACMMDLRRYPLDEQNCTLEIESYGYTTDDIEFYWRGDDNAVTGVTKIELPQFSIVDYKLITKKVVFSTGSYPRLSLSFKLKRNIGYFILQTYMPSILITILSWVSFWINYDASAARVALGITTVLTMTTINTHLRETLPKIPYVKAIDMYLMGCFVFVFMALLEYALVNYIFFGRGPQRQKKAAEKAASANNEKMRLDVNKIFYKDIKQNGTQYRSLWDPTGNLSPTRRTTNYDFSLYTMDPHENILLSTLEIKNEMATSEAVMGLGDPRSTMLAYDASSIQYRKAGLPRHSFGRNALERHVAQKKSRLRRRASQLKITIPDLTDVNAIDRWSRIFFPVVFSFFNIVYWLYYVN
T1 sequence (P18507 40-475 partner): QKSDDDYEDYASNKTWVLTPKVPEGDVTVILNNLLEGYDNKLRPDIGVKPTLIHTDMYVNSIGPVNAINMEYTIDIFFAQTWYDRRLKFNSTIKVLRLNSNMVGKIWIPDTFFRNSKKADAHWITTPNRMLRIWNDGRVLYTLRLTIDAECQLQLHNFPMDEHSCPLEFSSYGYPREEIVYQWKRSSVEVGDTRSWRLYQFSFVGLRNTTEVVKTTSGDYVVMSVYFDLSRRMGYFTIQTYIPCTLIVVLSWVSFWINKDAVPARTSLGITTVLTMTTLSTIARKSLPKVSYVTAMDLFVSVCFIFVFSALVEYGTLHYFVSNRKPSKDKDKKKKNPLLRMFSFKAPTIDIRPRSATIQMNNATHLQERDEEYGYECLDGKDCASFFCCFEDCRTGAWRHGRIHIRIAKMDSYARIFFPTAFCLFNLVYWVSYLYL

Compound | IC50 [1] | Duration of LRR (min) (male Sprague Dawley rats) | Emax at 10 µM (GABA receptor α1β2γ2)
C[C@H]1[C@H](O)CC[C@@]2(C)[C@H]1CC[C@@H]1[C@@H]2CC[C@]2(C)[C@@H](C#N)CC[C@@H]12 [Compound 49] | 100 to 500 nM |  | 
CCCO[C@H]1C[C@@]2(C)[C@@H](CC[C@H]3[C@@H]4CC[C@H](C#N)[C@@]4(C)CC(=O)[C@@H]32)C[C@@H]1O [Compound 21] | 10 to 50 nM | C (“C” indicates the duration of LRR to be >20 minutes) | > 500%
C[C@H]1[C@H](O)CC[C@@]2(C)[C@H]1CC[C@H]1[C@@H]3CC[C@H](C#N)[C@@]3(C)CC(=O)[C@@H]12 [Compound 55] | > 500 nM |  | 
C[C@]12CC[C@@H](O)C[C@@H]1CC[C@@H]1[C@@H]2[C@@H](O)C[C@]2(C)[C@@H](C#N)CC[C@@H]12 [Compound 27] | > 500 nM |  | 
C[C@]12C[C@@H](O)C3[C@@H](CC[C@H]4C[C@H](O)CC[C@]34C)[C@@H]1CC[C@@H]2C#N (stereo partly shown) [Compound 30] | > 500 nM |  | 
C[C@H]1C[C@@]2(C)[C@@H](CC[C@@H]3[C@@H]2CC[C@]2(C)[C@@H](C#N)CC[C@@H]32)C[C@@H]1O [Compound 40] | 10 to 50 nM | B (“B” indicates the duration of LRR to be 10-20 minutes) | > 500%
C[C@H]1C[C@@]2(C)[C@@H](CC[C@@H]3[C@@H]2[C@@H](O)C[C@]2(C)[C@@H](C#N)CC[C@@H]32)C[C@@H]1O [Compound 54] | 100 to 500 nM |  | 
CC(C)O[C@H]1C[C@@]2(C)[C@@H](CC[C@H]3[C@@H]4CC[C@H](C#N)[C@@]4(C)CC(=O)[C@@H]32)C[C@@H]1O [Compound 23] | 100 to 500 nM | B (“B” indicates the duration of LRR to be 10-20 minutes) | 
CO[C@H]1C[C@]2(C)[C@@H](C#N)CC[C@H]2[C@@H]2CC[C@H]3C[C@H](O)[C@@H](OC)C[C@]3(C)[C@H]21 [Compound 12] | 100 to 500 nM | A (“A” indicates the duration of LRR to be <10 min) | > 500%
CC[C@H]1C[C@@]2(C)[C@@H](CC[C@@H]3[C@@H]2CC[C@]2(C)[C@@H](C#N)CC[C@@H]32)C[C@@H]1O [Compound 41] | < 10 nM | C (“C” indicates the duration of LRR to be >20 minutes) | > 500%
COCCO[C@H]1C[C@@]2(C)[C@@H](CC[C@@H]3[C@@H]2[C@@H](O)C[C@]2(C)[C@@H](C#N)CC[C@@H]32)C[C@@H]1O [Compound 24] | > 500 nM |  | 
CCO[C@H]1C[C@@]2(C)[C@@H](CC[C@@H]3[C@@H]2[C@@H](O)C[C@]2(C)[C@H](C#N)CC[C@@H]32)C[C@@H]1O [Compound 11] | > 500 nM |  | 
CCCO[C@H]1C[C@@]2(C)[C@@H](CC[C@@H]3[C@@H]2CC[C@]2(C)[C@H](C#N)CC[C@@H]32)C[C@@H]1O [Compound 18] | > 500 nM |  | 
CC[C@H]1[C@H](O)CC[C@]2(C)[C@H]3CC[C@]4(C)[C@@H](C#N)CC[C@H]4[C@@H]3CC[C@@H]12 [Compound 50] | > 500 nM |  | 
C[C@]12C[C@H](OC(F)(F)F)[C@@H](O)C[C@@H]1CC[C@@H]1[C@@H]2CC[C@]2(C)[C@@H](C#N)CC[C@@H]12 [Compound 43] | > 500 nM |  | 
C[C@H]1[C@H](O)CC[C@]2(C)[C@@H]3[C@@H](CC[C@@H]12)[C@@H]1CC[C@H](C#N)[C@@]1(C)C[C@@H]3O [Compound 56] | > 500 nM |  | 
CO[C@H]1C[C@]2(C)[C@@H](C#N)CC[C@H]2[C@@H]2CC[C@@H]3C[C@H](O)CC[C@]3(C)[C@H]21 [Compound 28] | 100 to 500 nM | A (“A” indicates the duration of LRR to be <10 min) | > 500%

Compound | IC50 [1] | Duration of LRR (min) (male Sprague Dawley rats) | Emax at 10 µM (GABA receptor α1β2γ2)
C[C@H]1C[C@@]2(C)[C@@H](CC[C@H]3[C@@H]4CC[C@H](C#N)[C@@]4(C)CC(=O)[C@@H]32)C[C@@H]1O [Compound 53] | 100 to 500 nM |  | 
C[C@]12C[C@H](OC3CC3)[C@@H](O)C[C@@H]1CC[C@@H]1[C@@H]2CC[C@]2(C)[C@@H](C#N)CC[C@@H]12 [Compound 42] | > 500 nM |  | 
COCCO[C@H]1C[C@@]2(C)[C@@H](CC[C@H]3[C@@H]4CC[C@H](C#N)[C@@]4(C)CC(=O)[C@@H]32)C[C@@H]1O [Compound 17] | > 500 nM |  | 100 to 500%
CO[C@@H]1C[C@]2(C)[C@@H](C#N)CC[C@H]2[C@@H]2CC[C@H]3C[C@H](O)CC[C@]3(C)C21 (stereo partly shown) [Compound 34] | 100 to 500 nM |  | 
C[C@]12C[C@H](OCCO)[C@@H](O)C[C@@H]1CC[C@@H]1[C@@H]2CC[C@]2(C)[C@@H](C#N)CC[C@@H]12 [Compound 7] | > 500 nM |  | 
CO[C@H]1C[C@]2(C)[C@@H](C#N)CC[C@H]2[C@@H]2CC[C@H]3C[C@H](O)[C@@H](C)C[C@]3(C)[C@H]21 [Compound 51] | 10 to 50 nM | C (“C” indicates the duration of LRR to be >20 minutes) | > 500%
CO[C@@H]1C[C@@]2(C)[C@@H](CC[C@@H]3[C@@H]2CC[C@]2(C)[C@@H](C#N)CC[C@@H]32)C[C@@H]1O [Compound 44] | > 500 nM |  | 
CC(C)O[C@H]1C[C@@]2(C)[C@@H](CC[C@H]3[C@@H]4CC[C@H](C#N)[C@@]4(C)CC(=O)[C@@H]32)C[C@@H]1O [Compound 22] | 50 to 100 nM |  | 100 to 500%
C[C@@H]1C[C@@]2(C)[C@@H](CC[C@@H]3[C@@H]2CC[C@]2(C)[C@@H](C#N)CC[C@@H]32)C[C@@H]1O [Compound 33] | 10 to 50 nM | A (“A” indicates the duration of LRR to be <10 min) | 100 to 500%
CO[C@H]1C[C@]2(C)[C@H](C#N)CC[C@H]2[C@@H]2CC[C@H]3C[C@H](O)[C@@H](OC)C[C@]3(C)[C@H]21 [Compound 13] | > 500 nM |  | 
CO[C@H]1C[C@]2(C)[C@@H](C#N)CC[C@H]2[C@@H]2CC[C@H]3[C@@H](C)[C@H](O)CC[C@]3(C)[C@H]21 [Compound 52] | > 500 nM |  | 
C[C@]12C[C@H](OC3CC3)[C@@H](O)C[C@@H]1CC[C@@H]1[C@@H]2CC[C@]2(C)[C@H](C#N)CC[C@@H]12 [Compound 57] | > 500 nM |  | 
C[C@]12CC[C@@H](O)C[C@H]1CC[C@@H]1[C@@H]2[C@@H](O)C[C@]2(C)[C@H](C#N)CC[C@@H]12 [Compound 15] | > 500 nM |  | 
CCO[C@H]1C[C@@]2(C)[C@@H](CC[C@H]3[C@@H]4CC[C@@H](C#N)[C@@]4(C)CC(=O)[C@@H]32)C[C@@H]1O [Compound 20] | > 500 nM |  | 
CO[C@H]1C[C@]2(C)[C@H](C#N)CC[C@H]2[C@@H]2CC[C@H]3C[C@H](O)[C@H](C)C[C@]3(C)[C@H]21 [Compound 46] | 100 to 500 nM |  | 10 to 100%
CCCO[C@H]1C[C@@]2(C)[C@@H](CC[C@@H]3[C@@H]2[C@@H](O)C[C@]2(C)[C@@H](C#N)CC[C@@H]32)C[C@@H]1O [Compound 26] | 100 to 500 nM | B (“B” indicates the duration of LRR to be 10-20 minutes) | 
